For one series, the target named is T1, SARS-CoV-2 PLpro (Severe acute respiratory syndrome coronavirus 2, UniProt P0DTD1).
T1 construct: containing 60 nM papain-like protease
Description: biochemical. Conditions: 60 nM papain-like protease, 50 μM Z-RLRGG-AMC, pH 7.5, 37° C.; read-out: SARS-CoV-2 PLpro IC50.

Series [1] has as its system human Hep G2 cells (ATCC HB-8065). Description: Cytotoxicity in Hep G2 cells (CellTiter-Glo). It counts as cell-based. Conditions: Hep G2 cells, 100 μM test article, 24-hour exposure.

Counter-ions that a name gives are not always drawn. A value given as a limit tells only on which side of the number the result lay.

In the case of `COc1ccc([C@@H](C)NC(=O)c2cc(N3CCN(C)CC3)ccc2C)cc1OC` [Example 23, N-[(1R)-1-(3,4-Dimethoxyphenyl)ethyl]-2-methyl-5-(4-methylpiperazin-1-yl)benzamide], at SARS-CoV-2 PLpro, the IC50 is under 2000 nM. In addition, the “% Cell Viability” value in series [1] was determined as 87.3%.

Consider `CC(=O)N1CCN(c2ccc(C)c(C(=O)N[C@H](C)c3cccc4ccccc34)c2)CC1` [Example 109, 5-(4-Acetylpiperazin-1-yl)-2-methyl-N-[(1R)-1-(1-naphthyl)ethyl]benzamide], for which the IC50 at SARS-CoV-2 PLpro is under 10000 nM. Further, in series [1], the “% Cell Viability” value was determined as 72.9%.

As for `Cc1ccc(N2CCN(C)CC2)cc1C(=O)N[C@H](C)c1cccc(-c2cc(CO)cc(CO)c2)c1` [Example 81, N-[(1R)-1-[3-[3,5-Bis(hydroxymethyl)phenyl]phenyl]ethyl]-2-methyl-5-(4-methylpiperazin-1-yl)benzamide], at SARS-CoV-2 PLpro, the IC50 was under 2000 nM. Also, the “% Cell Viability” value in series [1] was determined as 94.4%.

`Cc1ccc(N2CCN(CCC(=O)O)CC2)cc1C(=O)N[C@H](C)c1cccc2ccccc12` [Example 162, 3-[4-[4-Methyl-3-[[(1R)-1-(1-naphthyl)ethyl]carbamoyl]phenyl]piperazin-1-yl]propanoic acid]: the half-maximal inhibitory concentration (IC50) on SARS-CoV-2 PLpro was under 2000 nM. Moreover, in series [1], the “% Cell Viability” value is 104.9%.

With `CCn1cc(-c2cc([C@@H](C)NC(=O)c3cc(N4CCN(C)CC4)ccc3C)ccc2OC)cn1` [Example 213, N-[(1R)-1-[3-(1-Ethylpyrazol-4-yl)-4-methoxy-phenyl]ethyl]-2-methyl-5-(4-methylpiperazin-1-yl)benzamide], the half-maximal inhibitory concentration (IC50) on SARS-CoV-2 PLpro is under 2000 nM. The “% Cell Viability” value in series [1] was determined as 67.2%.

Regarding `COc1ccc([C@@H](C)NC(=O)c2cc(N3CCN(C)CC3)ccc2C)cc1` [Example 30, N-[(1R)-1-(4-Methoxyphenyl)ethyl]-2-methyl-5-(4-methylpiperazin-1-yl)benzamide], on SARS-CoV-2 PLpro, the concentration for half-maximal inhibition (IC50) is under 10000 nM. In addition, the “% Cell Viability” value in series [1] was 102.3%.

On to `Cc1ccc(N2CCN(C)CC2)cc1C(=O)N[C@H](C)c1cccc(-c2cccc(CS(C)(=O)=O)c2)c1` [Example 52, 2-Methyl-5-(4-methylpiperazin-1-yl)-N-[(1R)-1-[3-[3 (methylsulfonylmethyl)phenyl]phenyl]ethyl]benzamide], for which, at SARS-CoV-2 PLpro, the IC50 was under 2000 nM. In addition, in series [1], the “% Cell Viability” value was found to be 49.0%.

As for `COc1ccc([C@@H](C)NC(=O)c2cc(N3CC4(CNC4)C3)ccc2C)cc1-c1cnn(C)c1` [Example 271, 5-(2,6-Diazaspiro[3.3]heptan-2-yl)-N-[(1R)-1-[4-methoxy-3-(1-methylpyrazol-4-yl)phenyl]ethyl]-2-methyl-benzamide], the IC50 on SARS-CoV-2 PLpro was under 5000 nM. In series [1], the “% Cell Viability” value was 95.2%.

With `CNC(=O)c1cc(-c2cc([C@@H](C)NC(=O)c3cc(N4CCN(C)CC4)ccc3C)ccc2OC)cs1` [Example 288, 4-[2-Methoxy-5-[(1R)-1-[[2-methyl-5-(4-methylpiperazin-1-yl)benzoyl]amino]ethyl]phenyl]-N-methyl-thiophene-2-carboxamide], the half-inhibitory concentration (IC50) at SARS-CoV-2 PLpro was under 2000 nM. Besides, the “% Cell Viability” value in series [1] came to 47.2%.

Turning to `COc1ccc([C@@H](C)NC(=O)c2cc(N3CCN(C)CC3)ccc2C)cc1O` [Example 291, N-[(1R)-1-(3-Hydroxy-4-methoxy-phenyl)ethyl]-2-methyl-5-(4-methylpiperazin-1-yl)benzamide], on SARS-CoV-2 PLpro, the IC50 is under 5000 nM. Moreover, the “% Cell Viability” value in series [1] was determined as 97.4%.

On to `CNCCN(C)C(=O)c1cccc(-c2cccc([C@@H](C)NC(=O)c3cc(N4CCN(C)CC4)ccc3C)c2)c1` [Example 99, 2-Methyl-N-[(1R)-1-[3-[3-[methyl-[2-(methylamino)ethyl]carbamoyl]phenyl]phenyl]ethyl]-5-(4-methylpiperazin-1-yl)benzamide Hydrochloride Salt], for which, at SARS-CoV-2 PLpro, the IC50 is under 2000 nM. Also, in series [1], the “% Cell Viability” value was determined as 104.6%.

As to `COc1ccc(-c2cccc([C@@H](C)NC(=O)c3cc(N4CCN(C)CC4)ccc3C)c2)cc1` [Example 40, N-[(1R)-1-[3-(4-Methoxyphenyl)phenyl]ethyl]-2-methyl-5-(4-methylpiperazin-1-yl)benzamide], on SARS-CoV-2 PLpro, the IC50 was under 2000 nM. In addition, in series [1], the “% Cell Viability” value was determined as 0.9%.

As to `Cc1ccc(N2CCN(C)CC2)cc1C(=O)N[C@H](C)c1cccc(-c2cnc(N)nc2)c1` [Example 63, N-[(1R)-1-[3-(2-Aminopyrimidin-5-yl)phenyl]ethyl]-2-methyl-5-(4-methylpiperazin-1-yl)benzamide], the half-inhibitory concentration (IC50) on SARS-CoV-2 PLpro is under 2000 nM. Also, in series [1], the “% Cell Viability” value was 75.6%.

With `Cc1ccc(N2CCN(CCO)CC2)cc1C(=O)N[C@H](C)c1cccc2ccccc12` [Example 111, 5-[4-(2-Hydroxyethyl)piperazin-1-yl]-2-methyl-N-[(1R)-1-(1-naphthyl)ethyl]benzamide], at SARS-CoV-2 PLpro, the IC50 was under 2000 nM. The “% Cell Viability” value in series [1] is recorded as 74.8%.

Regarding `Cc1ccc(N2CCN(C)CC2)cc1C(=O)N[C@H](C)c1cccc(-c2cccc(C(=O)NCCCN(C)C)c2)c1` [Example 93, N-[(1R)-1-[3-[3-[3-(Dimethylamino)propylcarbamoyl]phenyl]phenyl]ethyl]-2-methyl-5-(4-methylpiperazin-1-yl)benzamide], the 50% inhibitory concentration (IC50) at SARS-CoV-2 PLpro was under 2000 nM. For the same compound, the “% Cell Viability” value in series [1] came to 41.9%.

Regarding `COC(=O)CCN1CCN(c2cccc(C(=O)N[C@H](C)c3cccc4ccccc34)c2)CC1` [Example 160, Methyl 3-[4-[3-[[(1R)-1-(1-naphthyl)ethyl]carbamoyl]phenyl]piperazin-1-yl]propanoate], the half-maximal inhibitory concentration (IC50) on SARS-CoV-2 PLpro was under 100000 nM. The “% Cell Viability” value in series [1] was 101.8%.

For `COc1ccc([C@@H](C)NC(=O)c2cc(N3CCN(C)CC3)ccc2C)cc1OCCO` [Example 294, N-[(1R)-1-[3-(2-Hydroxyethoxy)-4-methoxy-phenyl]ethyl]-2-methyl-5-(4-methylpiperazin-1-yl)benzamide], on SARS-CoV-2 PLpro, the concentration for half-maximal inhibition (IC50) was under 5000 nM. Also, the “% Cell Viability” value in series [1] amounted to 120.9%.

For the compound `Cc1ccc(N2CCN(C)CC2)cc1C(=O)N[C@H](C)c1cccc(-c2cccc(N3CCN(CCC(=O)O)CC3)c2)c1` [Example 167, 3-[4-[3-[3-[(1R)-1-[[2-Methyl-5-(4-methylpiperazin-1-yl)benzoyl]amino]ethyl]phenyl]phe-nyl]piperazin-1-yl]propanoic acid], the half-maximal inhibitory concentration (IC50) at SARS-CoV-2 PLpro was under 2000 nM. The “% Cell Viability” value in series [1] was determined as 110.4%.

As for `COc1cccc([C@@H](C)NC(=O)c2cc(N3CCN(C)CC3)ccc2C)c1` [Example 29, N-[(1R)-1-(3-Methoxyphenyl)ethyl]-2-methyl-5-(4-methylpiperazin-1-yl)benzamide], at SARS-CoV-2 PLpro, the 50% inhibitory concentration (IC50) was under 5000 nM. Besides, the “% Cell Viability” value in series [1] was determined as 100%.

For `Cc1ccc(N2CCN(C)CC2)cc1C(=O)N[C@H](C)c1cncc(-c2ccccc2)c1` [Example 223, 2-Methyl-5-(4-methylpiperazin-1-yl)-N-[(1R)-1-(5-phenyl-3-pyridyl)ethyl]benzamide], at SARS-CoV-2 PLpro, the IC50 was under 2000 nM. In addition, the “% Cell Viability” value in series [1] turned out to be 59.8%.

Take `C[C@@H](NC(=O)c1cccc(N2CCNCC2)c1)c1cccc2ccccc12` [Example 158, N-[(1R)-1-(1-Naphthyl)ethyl]-3-piperazin-1-yl-benzamide Hydrochloride Salt]: the 50% inhibitory concentration (IC50) at SARS-CoV-2 PLpro is under 5000 nM. In addition, in series [1], the “% Cell Viability” value turned out to be 0.8%.
